# Patent publication US20220401514A1, “ANTIMICROBIAL, BACTERIOPHAGE-DERIVED POLYPEPTIDES AND THEIR USE AGAINST GRAM-NEGATIVE AND ACID-FAST BACTERIA” (CONTRAFECT CORPORATION, priority 2019, published 2022)
# Like-named read-outs stand apart in the source and are kept apart here.
# Experiments:
# [1] = test system: Escherichia coli; experiment: microbe, parasite or virus in culture; type: cell-based
# Summary of the method: (§1)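 Strains are exposed to peptide dilutions in CAA containing human serum, and the minimal inhibitory concentration is recorded.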
# [2] = test system: Enterobacter cloacae; experiment: microbe, parasite or virus in culture; type: cell-based
# Summary of the method: as §1
# [3] = test system: M. fortuitum; experiment: 45 hr MIC against M. fortuitum (NTM); type: cell-based, Mycobacterium fortuitum; conditions: M. fortuitum subsp. Fortuitum da Costa Cruz. ATCC 6841
# [4] = test system: S. maltophilia; experiment: MIC against S. maltophilia isolates; type: cell-based, Stenotrophomonas maltophilia; conditions: S. maltophilia isolates (n per peptide in table)
# Summary of the method: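 MIC in μg/mL for Chp peptides across several S. maltophilia isolates, n denoting the number of isolates tested.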
# [5] = test system: P. aeruginosa; experiment: 24-hour time-kill assay at 0.2x, 1x, 5x MIC in CAA, P. aeruginosa; type: cell-based, Pseudomonas aeruginosa
# Method: The time-kill assays were performed in CAA media at 37° C. with aeration. Quantitative plating was performed at time periods of 0 hours, 1 hour, 3 hours, and 24 hours. The following Chp peptides were evaluated: Chp2, Chp4, Chp2-M1, Chp4-M1, Chp6, Chp6-M1, Chp10, Chp10-M1, Ecp3, Ecp3-M1, Unp2, Unp2-M1, and Ecp1-M1.
# [6] = test system: Mycobacterium tuberculosis strains
# Method: MIC values for various Chp peptides were determined using the CLSI method for broth microdilution in 96-well microtiter format.
# Next, MIC values for various Chp peptides were determined using the CLSI method above for broth microdilution in 96-well microtiter format for two different Mycobacterium tuberculosis strains. The MIC was determined as explained above for the NTM strains.
# [7] = test system: carbapenem-resistant P. aeruginosa clinical isolate CFS-1292; experiment: MIC by modified CLSI broth microdilution against P. aeruginosa CFS-1292 (CAA, CAA + human serum); type: cell-based, Pseudomonas aeruginosa
# [8] = test system: P. aeruginosa strain CFS-1292; experiment: MIC in presence of mouse, rat, rabbit and human serum ([…] each); type: cell-based, Pseudomonas aeruginosa; conditions: P. aeruginosa CFS-1292
# Method: The activity of several Chp peptides against P. aeruginosa strain CFS-1292 in animal serum was evaluated. […] Rat, mouse, and rabbit serum were all obtained from pooled gender samples.
# [9] = test system: P. aeruginosa strain CFS-1292; experiment: MIC in presence and absence of NaCl (140 mM); type: cell-based, Pseudomonas aeruginosa
# Method: Certain Chp peptides were evaluated over a range of physiological NaCl levels and pH values, and were further evaluated for activity in the presence of various divalent cations.
# [10] = test system: Pseudomonas aeruginosa, Escherichia coli, Enterobacter cloacae, Klebsiella pneumoniae, and Acinetobacter baumannii; experiment: MIC against a range of Gram-negative organisms (statements covering several species); type: cell-based; conditions: Tables 40-44 isolates
# Method: (§2) Determination of Minimal Inhibitory Concentrations (MIC).
# (§3) Additional MIC testing was performed for several peptides against the ESKAPE pathogens Escherichia coli, Enterobacter cloacae, Klebsiella pneumoniae, and Acinetobacter baumannii, in CAA supplemented with human serum (Table D).
# [11] = test system: Acinetobacter baumannii; experiment: microbe, parasite or virus in culture; type: cell-based
# [12] = test system: Pseudomonas aeruginosa; experiment: microbe, parasite or virus in culture; type: cell-based; conditions: P. aeruginosa isolates (n per peptide in table)
# [13] = Stability assessment in 100% CAA; type: in vitro ADME; set-up: unit not given beside the values
# Method: Stability was assessed after incubation in 100% human serum at 37° C. after 10 minutes, 1 hour, and 2 hours.
# Stability assessment was further conducted in 100% CAA and rabbit serum using the same methodology discussed above.
# [14] = test system: M. avium; experiment: 45 hr MIC against M. avium (NTM); type: cell-based, Mycobacterium avium; conditions: M. avium Chester ATCC 700898
# [15] = test system: Klebsiella pneumoniae; type: cell-based
# Method: as §2, §3
# [16] = test system: M. kansasii Hauduroy ATCC 12478; experiment: 45 hr MIC against M. kansasii (NTM), Mueller Hinton broth; type: cell-based, Mycobacterium kansasii
# [17] = test system: P. aeruginosa strain CFS-1292; experiment: MIC in presence of divalent cations (calcium chloride, magnesium sulfate); type: cell-based, Pseudomonas aeruginosa
# Method: Next, Chp peptides were evaluated in the presence of different divalent cations. […]; (2) in the presence of 2 mM calcium chloride alone; (3) in the presence of 1 mM magnesium sulfate alone; and (4) in the presence of both 2 mM calcium chloride and 1 mM magnesium sulfate. […]
# [18] = test system: P. aeruginosa strain CFS-1292; experiment: MIC at pH 6, pH 7 and pH 8; type: cell-based, Pseudomonas aeruginosa
# Method: The Chp peptides were further evaluated at varying pH levels. The MIC values were determined at pH 6, pH 7, and pH 8 for 18 different Chp peptides against P. aeruginosa strain CFS-1292. […]
# [19] = test system: M. intracellulare; experiment: 45 hr MIC against M. intracellulare (NTM); type: cell-based, Mycobacterium intracellulare; conditions: M. intracellulare (Cuttino and McCabe) Runyon ATCC 13950
# [20] = test system: carbapenem-resistant bacterial strains; experiment: organism not typed; type: cell-based
# From the text: as §2
# [21] = test system: M. smegmatis; experiment: 45 hr MIC against M. smegmatis (NTM), Mueller Hinton broth; type: cell-based, Mycobacterium smegmatis
# [22] = test system: P. aeruginosa strain CFS-1292; experiment: MIC in presence and absence of Survanta pulmonary surfactant; type: cell-based, Pseudomonas aeruginosa
# [23] = test system: M. scrofulaceum; experiment: 45 hr MIC against M. scrofulaceum (NTM); type: cell-based, Mycobacterium scrofulaceum; conditions: M. scrofulaceum Prissick and Masson ATCC 19981
# [24] = E. coli isolates (n per peptide in table)
# [25] = E. cloacae isolates (n per peptide in table)
# [26] = A. baumannii isolates (n per peptide in table)
# [27] = K. pneumoniae isolates (n per peptide in table)
sequence,measurement,setting,value
MKRRKLSKKKSRKIFTRGAVNVKKRNLRARPMRGGFRI [Chp10],MIC50,[1]; [24],0.5 µg/mL
same,MIC100,[1]; [24],1 µg/mL
same,MIC Range,[1]; [24],0.03 to 0.2 µg/mL
same,MIC,"[1]; Escherichia coli ATCC 25922, CAA supplemented with human serum",0.5 µg/mL
same,MIC50,[2]; [25],0.25 µg/mL
same,MIC100,[2]; [25],1 µg/mL
same,MIC Range,[2]; [25],0.125 to 2 µg/mL
same,MIC,"[2]; Enterobacter cloacae ATCC 13047, CAA supplemented with human serum",1 µg/mL
same,45 hr MIC,[3],1 µg/mL
same,MIC50,[4],8 µg/mL
same,MIC100,[4],>8 µg/mL
same,Log10 CFU/mL compared to untreated control buffer (24-hour time-kill),[5],all but Chp10 maintaining strong efficacy up to 24 hours
same,MIC,[6]; Mycobacterium tuberculosis (Zopf) Lehmann and Neumann ATCC 25177,32 µg/mL
same,MIC,[6]; Mycobacterium tuberculosis (Zopf) Lehmann and Neumann ATCC 35817,8 µg/mL
same,MIC (μg/mL) against CFS-1292 in 100% CAA (1st run/2nd run),"[7]; 100% CAA, 1st run or single value",0.5 µg/mL
same,MIC (μg/mL) against CFS-1292 in CAA + […] human serum,[7]; CAA + […] human serum,0.5 µg/mL
same,MIC BALB/C Mouse Serum,[8]; BALB/C mouse serum […],32 µg/mL
same,MIC CAA,[8]; CAA,1 µg/mL
same,MIC New Zealand White Rabbit Serum,[8]; New Zealand White rabbit serum […],4 µg/mL
same,MIC Sprague Dawley Rat Serum,[8]; Sprague Dawley rat serum […],4 µg/mL
same,MIC Human Serum,[8]; human serum […],1 µg/mL
same,Fold change in MIC,[9]; CAA + 140 mM NaCl versus CAA without added NaCl,4
same,"MIC, CAA + 140 mM NaCl","[9]; CAA + 140 mM NaCl, P. aeruginosa CFS-1292",2 µg/mL
same,"MIC, CAA (no added NaCl)","[9]; CAA, no added NaCl, P. aeruginosa CFS-1292",0.5 µg/mL
same,"activity (good = MIC100 of ≤4) against all of P. aeruginosa, K. pneumoniae, A. baumannii, E. cloacae, and E. coli",[10],good activity
same,MIC50,[11]; [26],0.5 µg/mL
same,MIC100,[11]; [26],0.5 µg/mL
same,MIC Range,[11]; [26],0.25 to 0.5 µg/mL
same,MIC,"[11]; Acinetobacter baumannii ATCC BAA 747, CAA supplemented with human serum",2 µg/mL
same,MIC50,[12],4 µg/mL
same,MIC100,[12],8 µg/mL
same,MIC Range,[12],0.5 to 8 µg/mL
same,MIC (100% CAA),[13],0.5
same,45 hr MIC,[14],0.5 µg/mL
same,MIC50,[15]; [27],0.25 µg/mL
same,MIC100,[15]; [27],0.5 µg/mL
same,MIC Range,[15]; [27],0.125 to 0.5 µg/mL
same,MIC,"[15]; Klebsiella pneumoniae HM-44, CAA supplemented with human serum",0.5 µg/mL
same,45 hr MIC,[16],4 µg/mL
same,MIC,[17]; CAA media + 1 mM MgSO4,1 µg/mL
same,MIC,[17]; CAA media + 2 mM CaCl2,1 µg/mL
same,MIC,[17]; CAA media + + 1 mM MgSO4,2 µg/mL
same,MIC,[17]; CAA media alone,0.5 µg/mL
same,MIC,[18]; CAA media (pH 7),0.5 µg/mL
same,MIC,[18]; pH 6,2 µg/mL
same,MIC,[18]; pH 7,1 µg/mL
same,MIC,[18]; pH 8,1 µg/mL
same,45 hr MIC,[19],0.5 µg/mL
same,MIC,[20]; carbapenem-resistant isolate PA19,0.5 µg/mL
same,MIC,[20]; carbapenem-resistant isolate PA20,8 µg/mL
same,MIC,[20]; carbapenem-resistant isolate PA21,8 µg/mL
same,MIC,[20]; carbapenem-resistant isolate PA22,8 µg/mL
same,MIC,[20]; carbapenem-resistant isolate PA23,4 µg/mL
same,MIC,[20]; carbapenem-resistant isolate PA24,4 µg/mL
same,MIC,[20]; carbapenem-resistant isolate WLC-452,1 µg/mL
same,45 hr MIC,"[21]; M. smegmatis MC^2 155, Run #1",2 µg/mL
same,45 hr MIC,"[21]; M. smegmatis MC^2 155, Run #2",1 µg/mL
same,MIC,[22]; CAA media + 0.19 mg/mL Survanta,0.5 µg/mL
same,MIC,[22]; CAA media + […] Survanta,0.5 µg/mL
same,MIC,[22]; CAA media alone,0.5 µg/mL
same,45 hr MIC,[23],0.5 µg/mL
